The assay addresses T1, Recombinant (1-346) HPK1 (h) (Homo sapiens, UniProt Q92918).
T1 construct: Recombinant (1-346) HPK1 (h) is incubated with 8 mM MOPS pH 7.0
T1 sequence (Q92918 1-346): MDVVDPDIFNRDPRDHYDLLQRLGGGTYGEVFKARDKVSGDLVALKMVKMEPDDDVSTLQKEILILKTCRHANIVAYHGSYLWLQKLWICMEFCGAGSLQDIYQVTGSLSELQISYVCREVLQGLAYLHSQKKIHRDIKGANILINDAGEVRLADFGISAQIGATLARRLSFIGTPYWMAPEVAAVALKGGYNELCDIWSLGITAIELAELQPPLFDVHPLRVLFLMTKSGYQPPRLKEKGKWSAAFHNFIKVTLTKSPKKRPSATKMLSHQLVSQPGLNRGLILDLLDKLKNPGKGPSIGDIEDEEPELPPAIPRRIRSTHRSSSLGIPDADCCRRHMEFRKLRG
The experiment in a line: HPK1 human STE kinase enzymatic radiometric assay. It counts as biochemical. The note with it: read-out: HPK1 IC50 nM Range. On the procedure:
(a) HPK1 Human STE Kinase Enzymatic Radiometric Assay
A stock solution of 10 mM of test compound is prepared in DMSO. The compound plate was prepared by 3-fold and 9-point serial dilutions. Recombinant (1-346) HPK1 (h) is incubated with 8 mM MOPS pH 7.0, 0.2 mM EDTA, 0.33 mg/mL myelin basic protein, 10 mM MgAcetate and [gamma-33P]-ATP (specific activity and concentration as required). The reaction is initiated by the addition of the Mg/ATP mix. After incubation for 40 minutes at RT, the reaction is stopped by the addition of phosphoric acid to a concentration of 0.5%, 10 μL of the reaction is then spotted onto a P30 filtermat and washed four times for 4 minutes in 0.425% phosphoric acid and once in methanol prior to drying and scintillation counting. For more details of kinase assay protocols, see: Gao, Y. et. al.; Biochem J.451 (2): 313-328, 2013.

The values below come from patent US20240425479A1, “HALO-SUBSTITUTED AMINO AZA-HETEROARYL COMPOUNDS AS INHIBITORS OF THE HAEMATOPOIETIC PROGENITOR KINASE 1 (HPK1)” (priority 2021, published 2024).

Each structure is given as a SMILES string.

Turning to `CN(C)Cc1cc(-c2nc(-c3ccc4c(=O)[nH]cc(F)c4c3)c(N)nc2F)ccc1OC(F)F` [Example I-270, 6-(3-amino-6-(4-(difluoromethoxy)-3-((dimethylamino)methyl)phenyl)-5-fluoropyrazin-2-yl)-4-fluoroisoquinolin-1(2H)-one], the IC50 is 0.1 to 10 nM. As for `Cc1c[nH]c(=O)c2ccc(-c3nc(-c4ccc(N5CCN(CCCC(F)F)CC5)cc4)c(F)nc3N)cc12` [Example I-73, 6-(3-amino-6-(4-(4-(4,4-difluorobutyl)piperazin-1-yl)phenyl)-5-fluoropyrazin-2-yl)-4-methylisoquinolin-1(2H)-one], the figure is 0.1 to 10 nM; as for `CC(C)(N)c1cc(-c2nc(-c3ccc4c(c3)CCNC4=O)c(N)nc2F)ccc1F` [Example I-271, 6-(3-amino-6-(3-(2-aminopropan-2-yl)-4-fluorophenyl)-5-fluoropyrazin-2-yl)-3,4-dihydroisoquinolin-1(2H)-one], 101 to 1000 nM; as for `COCCN(C)Cc1cc(-c2nc(-c3cc(F)c4c(c3)CCNC4=O)c(N)nc2F)ccc1N1CCOCC1` [Example I-162, 6-(3-amino-5-fluoro-6-(3-(((2-methoxyethyl)(methyl)amino)methyl)-4-morpholinophenyl)pyrazin-2-yl)-8-fluoro-3,4-dihydroisoquinolin-1(2H)-one], 0.1 to 10 nM.

As to `C[C@H]1CN(c2ccc(-c3nc(-c4ccc5c(c4)CCNC5=O)c(N)nc3F)cc2CN(C)C)CCO1` [Example I-211, (S)-6-(3-amino-6-(3-((dimethylamino)methyl)-4-(2-methylmorpholino)phenyl)-5-fluoropyrazin-2-yl)-3,4-dihydroisoquinolin-1(2H)-one], the IC50 was in the range of 0.1 to 10 nM. As for `Cc1[nH]c(=O)c2c(F)cc(-c3nc(-c4ccc(N5CCOCC5)c(CN(C)C)c4)c(F)nc3N)cc2c1Cl` [Example I-109, 6-(3-amino-6-(3-((dimethylamino)methyl)-4-morpholinophenyl)-5-fluoropyrazin-2-yl)-4-chloro-8-fluoro-3-methylisoquinolin-1(2H)-one], the figure is 0.1 to 10 nM; as for `Nc1nc(F)c(-c2ccc(N3CCN(CCCC(F)F)CC3)cc2)nc1-c1ccc2c(c1)CCNC2=O` [Example I-68, 6-(3-amino-6-(4-(4-(4,4-difluorobutyl)piperazin-1-yl)phenyl)-5-fluoropyrazin-2-yl)-3,4-dihydroisoquinolin-1(2H)-one], 0.1 to 10 nM; as for `C[C@@H]1CN(C)CCN1c1ccc(-c2nc(-c3cc4c(cc3F)C(=O)NCC4)c(N)nc2F)cc1` [Example I-53, (R)-6-(3-amino-6-(4-(2,4-dimethylpiperazin-1-yl)phenyl)-5-fluoropyrazin-2-yl)-7-fluoro-3,4-dihydroisoquinolin-1(2H)-one], 0.1 to 10 nM.

On to `C[C@H]1CN(c2ccc(-c3nc(-c4cc5c(cc4F)C(=O)NCC5)c(N)nc3F)cc2CN2CCC2)CCO1` [Example I-215, (S)-6-(3-amino-6-(3-(azetidin-1-ylmethyl)-4-(2-methylmorpholino)phenyl)-5-fluoropyrazin-2-yl)-7-fluoro-3,4-dihydroisoquinolin-1(2H)-one], for which the IC50 fell in the range of 0.1 to 10 nM. Turning to `CN(C)Cc1cccc(-c2nc(-c3ccc4c(c3)CCNC4=O)c(N)nc2F)c1` [Example I-277, 6-(3-amino-6-(3-((dimethylamino)methyl)phenyl)-5-fluoropyrazin-2-yl)-3,4-dihydroisoquinolin-1(2H)-one], the IC50 was in the range of 11 to 100 nM.

For `Nc1nc(F)c(-c2ccc(N3CCN(C4CCC4)CC3)cc2)nc1-c1ccc2c(c1)CCNC2=O` [Example I-49, 6-(3-amino-6-(4-(4-cyclobutylpiperazin-1-yl)phenyl)-5-fluoropyrazin-2-yl)-3,4-dihydroisoquinolin-1(2H)-one], the IC50 was 0.1 to 10 nM. The result for `C[C@@H]1CN(c2ccc(-c3nc(-c4cc(F)c5c(c4)CCNC5=O)c(N)nc3F)cc2CN(C)C)C[C@H](C)O1` [Example I-197, 6-(3-amino-6-(3-((dimethylamino)methyl)-4-((2R,6S)-2,6-dimethylmorpholino)phenyl)-5-fluoropyrazin-2-yl)-8-fluoro-3,4-dihydroisoquinolin-1(2H)-one] reads 0.1 to 10 nM.
